Results taken from patent publication US20240299352A1, “COMBINATION THERAPIES WITH SETD2 INHIBITORS” (Epizyme, Inc., priority 2021, published 2024).

Assays:
[1] = tested on: MINO; assay: Co-treatment combination study with Cpd. No. 15, CellTiter-Glo viability, Loewe Volume; format: cell-based; details: in combination with Cpd. No. 15, seven days, mantle cell lymphoma cell line MINO (CRL-3000)
Outline: (§1)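 Four replicate wells per combination, vehicle 0.1% v/v DMSO, co-treatment of Cpd. No. 15 with a partner in log-phase lymphoma cultures. Incubation lasted seven days (37° C, 5% CO2) before CellTiter-Glo luminescence; data were fitted to a four-parameter logistic model.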

[2] = tested on: SUDHL5; assay: as above; format: cell-based; details: in combination with Cpd. No. 15, seven days, DLBCL cell line SUDHL5
Outline: as §1

[3] = tested on: TOLEDO; assay: as above; format: cell-based; details: in combination with Cpd. No. 15, seven days, DLBCL cell line TOLEDO
Outline: as §1

[4] = tested on: JVM2; assay: as above; format: cell-based; details: in combination with Cpd. No. 15, seven days, mantle cell lymphoma cell line JVM2 (CRL-3002)
Outline: as §1

[5] = tested on: JEKO1; assay: as above; format: cell-based; details: in combination with Cpd. No. 15, seven days, mantle cell lymphoma cell line JEKO1 (CRL-3006)
Outline: as §1

[6] = tested on: KARPAS422; assay: as above; format: cell-based; details: in combination with Cpd. No. 15, seven days, DLBCL cell line KARPAS422
Outline: as §1

[7] = tested on: DOHH2; assay: as above; format: cell-based; details: in combination with Cpd. No. 15, seven days, DLBCL cell line DOHH2
Outline: as §1

[8] = tested on: SUDHL2; assay: as above; format: cell-based; details: in combination with Cpd. No. 15, seven days, DLBCL cell line SUDHL2
Outline: as §1

[9] = tested on: WSUNHL; assay: as above; format: cell-based; details: in combination with Cpd. No. 15, seven days, DLBCL cell line WSUNHL
Outline: as §1

[10] = tested on: Z138; assay: as above; format: cell-based; details: in combination with Cpd. No. 15, seven days, mantle cell lymphoma cell line Z138 (CRL-3001)
Outline: as §1

[11] = tested on: WILL2; assay: as above; format: cell-based; details: in combination with Cpd. No. 15, seven days, DLBCL cell line WILL2
Outline: as §1

[12] = tested on: SUDHL8; assay: as above; format: cell-based; details: in combination with Cpd. No. 15, seven days, DLBCL cell line SUDHL8
Outline: as §1

[13] = tested on: SUDHL10; assay: as above; format: cell-based; details: in combination with Cpd. No. 15; 5-Day Cotreatment; DLBCL cell line SUDHL10
[14] = tested on: WSUDLCL2; assay: as above; format: cell-based; details: in combination with Cpd. No. 15, seven days, DLBCL cell line WSUDLCL2
Outline: as §1

[15] = tested on: SUDHL6; assay: as above; format: cell-based; details: in combination with Cpd. No. 15, seven days, DLBCL cell line SUDHL6
Outline: as §1

[16] = tested on: DB; assay: as above; format: cell-based; details: in combination with Cpd. No. 15, seven days, DLBCL cell line DB
Outline: as §1

[17] = tested on: Pfeiffer; assay: as above; format: cell-based; details: in combination with Cpd. No. 15, seven days, DLBCL cell line Pfeiffer
Outline: as §1

[18] = tested on: MAVER1; assay: as above; format: cell-based; details: in combination with Cpd. No. 15, seven days, mantle cell lymphoma cell line MAVER1 (CRL-3008)
Outline: as §1

[19] = tested on: GRANTA519; assay: as above; format: cell-based; details: in combination with Cpd. No. 15, seven days, mantle cell lymphoma cell line GRANTA519 (ACC 342)
Outline: as §1

[20] = tested on: SUDHL4; assay: as above; format: cell-based; details: in combination with Cpd. No. 15, seven days, DLBCL cell line SUDHL4
Outline: as §1

[21] = tested on: HT; assay: as above; format: cell-based; details: in combination with Cpd. No. 15, seven days, DLBCL cell line HT
Outline: as §1

[22] = tested on: RL; assay: as above; format: cell-based; details: in combination with Cpd. No. 15; 6-Day Cotreatment; DLBCL cell line RL
[23] = tested on: REC1; assay: as above; format: cell-based; details: in combination with Cpd. No. 15, seven days, mantle cell lymphoma cell line REC1 (CRL-3004)
Outline: as §1

[24] = tested on: diffuse large B-cell lymphoma (DLBCL) cell lines; assay: Pre-treatment model combination study with Cpd. No. 15 (7 days pre-treatment, then combination; Table G), CellTiter-Glo viability, Loewe Volume; details: 7 days pre-treatment with Cpd. No. 15, then combination; for Combination effect with Cpd. No. 15 (Loewe Volume class), Farage: cell line Farage (Cat. No. CRL-2630); for Combination effect with Cpd. No. 15 (Loewe Volume class), HT: cell line HT (Cat. No. CRL-2631); for Combination effect with Cpd. No. 15 (Loewe Volume class), OCILY7: cell line OCILY7 (Cat. No. ACC 688); for Combination effect with Cpd. No. 15 (Loewe Volume class), SUDHL4: cell line SUDHL4 (Cat. No. ACC 495)
[25] = tested on: diffuse large B-cell lymphoma (DLBCL) cell lines; assay: Co-treatment combination study with Cpd. No. 15, further cell lines (Table F), CellTiter-Glo viability, Loewe Volume; format: cell-based; details: for Combination effect with Cpd. No. 15 (Loewe Volume class), Ri1: co-treatment with Cpd. No. 15, cell line Ri1 (Cat. No. 96090512-1VL); for Combination effect with Cpd. No. 15 (Loewe Volume class), TMD8: co-treatment with Cpd. No. 15, cell line TMD8 (Cat. No. M-097); for Combination effect with Cpd. No. 15 (Loewe Volume class), WILL1: co-treatment with Cpd. No. 15, cell line WILL1 (Cat. No. ACC 651)
Procedure: Mantle cell lymphoma (MCL) and diffuse large B-cell lymphoma (DLBCL) cell line cultures in log-linear growth rate were treated with combinations of Cpd. No. 15 and combination partners according to a co-treatment model. […] No. 15 and the combination partner. […] Each combination was tested in quadruplicate wells. The final concentration of DMSO (vehicle) in the assay was 0.1% v/v. Fifty microliters of cell line suspension were directly dispensed to the assay-ready plates with an automated multichannel dispenser on to 384-well assay-ready plates. Assay plates were incubated for seven days unless otherwise indicated in a humidified atmosphere of 5% CO2 at 37° C. Quantification of the effect of single agents or combinations on cell viability was performed through measurement of cellular adenosine triphosphate (ATP) using a CellTiter-Glo® (Promega, Madison, WI) Luminescent Cell Viability Assay. Luminescence was detected using a SpectraMax M5 microplate reader (Molecular Devices, Sunnyvale, CA). Concentration response plots were generated in GraphPad Prism version 7.0 for Windows, GraphPad Software, (La Jolla, California) and curves fitted to a four-parameter logistic model with variable slope. Percent of inhibition was calculated at each treatment concentration.

CC#CC(=O)N1CCC[C@H]1c1nc(-c2ccc(C(=O)Nc3ccccn3)cc2)c2c(N)nccn12 [Acalabrutinib, acalabrutinib]
Combination effect (Loewe Volume) MINO [1]: Synergy (VLoewe>1: synergy)
Combination effect (Loewe Volume) SUDHL5 [2]: No Effect
Combination effect (Loewe Volume) TOLEDO [3]: No Effect
Combination effect (Loewe Volume) JVM2 [4]: Additivity (between 1 and −1: additivity)
Combination effect (Loewe Volume) JEKO1 [5]: Synergy (VLoewe>1: synergy)
Combination effect (Loewe Volume) KARPAS422 [6]: No Effect
Combination effect (Loewe Volume) DOHH2 [7]: No Effect
Combination effect (Loewe Volume) SUDHL2 [8]: No Effect
Combination effect (Loewe Volume) WSUNHL [9]: No Effect
Combination effect (Loewe Volume) Z138 [10]: No Effect
Combination effect (Loewe Volume) WILL2 [11]: Additivity (between 1 and −1: additivity)
Combination effect (Loewe Volume) SUDHL8 [12]: No Effect
Combination effect (Loewe Volume) SUDHL10 [13]: No Effect
Combination effect (Loewe Volume) WSUDLCL2 [14]: Additivity (between 1 and −1: additivity)
Combination effect (Loewe Volume) SUDHL6 [15]: Synergy (VLoewe>1: synergy)
Combination effect (Loewe Volume) DB [16]: No Effect
Combination effect (Loewe Volume) Pfeiffer [17]: No Effect
Combination effect (Loewe Volume) MAVER1 [18]: Synergy (VLoewe>1: synergy)
Combination effect (Loewe Volume) GRANTA519 [19]: Additivity (between 1 and −1: additivity)
Combination effect (Loewe Volume) SUDHL4 [20]: No Effect
Combination effect (Loewe Volume) HT [21]: No Effect
Combination effect (Loewe Volume) RL [22]: No Effect
Combination effect (Loewe Volume) REC1 [23]: Additivity (between 1 and −1: additivity)
Combination effect with Cpd. No. 15 (Loewe Volume class), Farage [24]: Synergy (VLoewe>1: synergy)
Combination effect with Cpd. No. 15 (Loewe Volume class), HT [24]: No Effect
Combination effect with Cpd. No. 15 (Loewe Volume class), OCILY7 [24]: No Effect
Combination effect with Cpd. No. 15 (Loewe Volume class), SUDHL4 [24]: No Effect
Combination effect with Cpd. No. 15 (Loewe Volume class), WILL2 ([24]; cell line WILL2 (Cat. No. ACC 652)): No Effect
Combination effect with Cpd. No. 15 (Loewe Volume class), Ri1 [25]: Synergy (VLoewe>1: synergy)
Combination effect with Cpd. No. 15 (Loewe Volume class), TMD8 [25]: Synergy (VLoewe>1: synergy)
Combination effect with Cpd. No. 15 (Loewe Volume class), WILL1 [25]: No Effect

C=CC(=O)N1CCC([C@@H]2CCNc3c(C(N)=O)c(-c4ccc(Oc5ccccc5)cc4)nn32)CC1 [Zanubrutinib, zanubrutinib]
Combination effect (Loewe Volume) MINO [1]: Synergy (VLoewe>1: synergy)
Combination effect (Loewe Volume) SUDHL5 [2]: No Effect
Combination effect (Loewe Volume) TOLEDO [3]: Additivity (between 1 and −1: additivity)
Combination effect (Loewe Volume) JVM2 [4]: Additivity (between 1 and −1: additivity)
Combination effect (Loewe Volume) JEKO1 [5]: Synergy (VLoewe>1: synergy)
Combination effect (Loewe Volume) KARPAS422 [6]: No Effect
Combination effect (Loewe Volume) DOHH2 [7]: Synergy (VLoewe>1: synergy)
Combination effect (Loewe Volume) SUDHL2 [8]: No Effect
Combination effect (Loewe Volume) WSUNHL [9]: Additivity (between 1 and −1: additivity)
Combination effect (Loewe Volume) Z138 [10]: No Effect
Combination effect (Loewe Volume) WILL2 [11]: Additivity (between 1 and −1: additivity)
Combination effect (Loewe Volume) SUDHL8 [12]: No Effect
Combination effect (Loewe Volume) SUDHL10 [13]: No Effect
Combination effect (Loewe Volume) WSUDLCL2 [14]: Additivity (between 1 and −1: additivity)
Combination effect (Loewe Volume) SUDHL6 [15]: Synergy (VLoewe>1: synergy)
Combination effect (Loewe Volume) DB [16]: No Effect
Combination effect (Loewe Volume) Pfeiffer [17]: No Effect
Combination effect (Loewe Volume) MAVER1 [18]: Synergy (VLoewe>1: synergy)
Combination effect (Loewe Volume) GRANTA519 [19]: Additivity (between 1 and −1: additivity)
Combination effect (Loewe Volume) SUDHL4 [20]: Synergy (VLoewe>1: synergy)
Combination effect (Loewe Volume) HT [21]: No Effect
Combination effect (Loewe Volume) RL [22]: No Effect
Combination effect (Loewe Volume) REC1 [23]: Additivity (between 1 and −1: additivity)
Combination effect with Cpd. No. 15 (Loewe Volume class), Farage [24]: Synergy (VLoewe>1: synergy)
Combination effect with Cpd. No. 15 (Loewe Volume class), HT [24]: Synergy (VLoewe>1: synergy)
Combination effect with Cpd. No. 15 (Loewe Volume class), OCILY7 [24]: Synergy (VLoewe>1: synergy)
Combination effect with Cpd. No. 15 (Loewe Volume class), SUDHL4 [24]: Synergy (VLoewe>1: synergy)
Combination effect with Cpd. No. 15 (Loewe Volume class), Ri1 [25]: Synergy (VLoewe>1: synergy)
Combination effect with Cpd. No. 15 (Loewe Volume class), TMD8 [25]: Synergy (VLoewe>1: synergy)
Combination effect with Cpd. No. 15 (Loewe Volume class), WILL1 [25]: No Effect
